Measurements as given in ChEMBL document CHEMBL1129230, “Inhibitory effects of scopadulcic acid B and its derivatives on bone resorption and osteoclast formation in vitro” (1996).

Key:
Assay type in all cases: functional
[1] = species: Mus musculus; experiment: Inhibition of PTH-stimulated bone resorption at concentration of 5 uM
[2] = species: Mus musculus; experiment: Inhibition of PTH-stimulated osteoclast-like cell formation at concentration 5 uM
[3] = species: Mus musculus; experiment: Inhibition of PTH-stimulated osteoclast-like cell formation at concentration 2 uM
[4] = species: Mus musculus; experiment: Inhibition of PTH-stimulated osteoclast-like cell formation at concentration 10 uM
[5] = species: Mus musculus; experiment: Inhibition of PTH-stimulated bone resorption at concentration of 2 uM
[6] = species: Mus musculus; experiment: compound was evaluated in vitro for the inhibition of PTH-stimulated osteoclast-like cell formation at concentration 5 uM
[7] = species: Mus musculus; experiment: compound was evaluated in vitro for the inhibition of PTH-stimulated osteoclast-like cell formation at concentration 2 uM
[8] = species: Mus musculus; experiment: compound was evaluated in vitro for the inhibition of PTH-stimulated osteoclast-like cell formation at concentration 10 uM
[9] = species: Mus musculus; experiment: compound was evaluated in vitro for the inhibition of PTH-stimulated osteoclast-like cell formation at concentration 0.05 uM
[10] = species: Mus musculus; experiment: Inhibition of PTH-stimulated bone resorption at concentration of 10 uM
[11] = species: Mus musculus; experiment: compound was evaluated in vitro for the inhibition of PTH-stimulated osteoclast-like cell formation at concentration 0.1 uM
[12] = species: Mus musculus; experiment: compound was evaluated in vitro for the inhibition of PTH-stimulated osteoclast-like cell formation at concentration 0.5 uM

| SMILES | Inhibition [1] [%] | inhibition at 5 µM [2] [%] | inhibition at 2 µM [3] [%] | inhibition at 10 µM [4] [%] | Inhibition [5] [%] | inhibition at 5 µM [6] [%] | inhibition at 2 µM [7] [%] | inhibition at 10 µM [8] [%] | inhibition at 0.05 µM [9] [%] | Inhibition [10] [%] | inhibition at 0.1 µM [11] [%] | inhibition at 0.5 µM [12] [%] |
| --- | --- | --- | --- | --- | --- | --- | --- | --- | --- | --- | --- | --- |
| C[C@@]1(CO)CCC[C@@]2(C)C1[C@H](OC(=O)c1ccccc1)C[C@H]1C[C@@H](O)[C@@]3(C)CC[C@]12C3 (stereo partly drawn) | 95 | 87 | 17 | 105 | -60 |  |  |  |  |  |  |  |
| C[C@@]1(CO)CCC[C@@]2(C)C1[C@H](OC(=O)c1ccccc1)C[C@H]1C[C@H](O)[C@@]3(C)CC[C@]12C3 (stereo partly drawn) | 99 |  |  |  | -51 | 75 | 24 | 94 |  |  |  |  |
| C[C@]12CC[C@]3(C1)C(CC2=O)C[C@@H](OC(=O)c1ccccc1)C1[C@](C)(CO)CCC[C@@]13C (stereo partly drawn) | 99 | 137 | 137 | 137 | 106 |  |  |  | 44 | 99 | 115 | 137 |
| C[C@]12CC[C@]3(C1)[C@@H](C[C@@H](O)[C@H]1[C@](C)(CO)CCC[C@@]13C)C[C@H]2O | 6 |  |  |  | -8 |  |  |  |  | -17 |  |  |
| CC(=O)OC[C@]1(C)CCC[C@@]2(C)[C@H]1[C@H](OC(=O)c1ccccc1)C[C@H]1CC(=O)[C@@]3(C)CC[C@]12C3 | 107 | 90 | 45 | 105 | 12 |  |  |  |  | 125 |  |  |
| CC(=O)O[C@@H]1C[C@H]2CC(=O)[C@@]3(C)CC[C@@]2(C3)[C@@]2(C)CCC[C@@](C)(C(=O)O)[C@H]12 | 40 | 27 | -8 | 37 | 33 |  |  |  |  | 47 |  |  |
| C[C@]12CC[C@]3(C1)[C@@H](C[C@@H](OC(=O)c1ccccc1)[C@H]1[C@](C)(C(=O)O)CCC[C@@]13C)C[C@@H]2O | 39 | 75 | 24 | 93 | 35 |  |  |  |  | 70 |  |  |
| COC(=O)[C@]1(C)CCC[C@@]2(C)[C@H]1[C@H](OC(=O)c1ccccc1)C[C@H]1C[C@H](OC(C)=O)[C@@]3(C)CC[C@]12C3 | 51 | 109 | 81 | 134 | 38 |  |  |  |  | 55 |  |  |
| COC(=O)[C@]1(C)CCC[C@@]2(C)[C@H]1[C@H](OC(=O)c1ccccc1)C[C@H]1C[C@@H](O)[C@@]3(C)CC[C@]12C3 | 29 |  |  |  | 22 |  |  |  |  | 49 |  |  |
| COC(=O)[C@]1(C)CCC[C@@]2(C)[C@H]1[C@H](OC(=O)c1ccccc1)C[C@H]1C[C@H](O)[C@@]3(C)CC[C@]12C3 | -17 |  |  |  | -23 |  |  |  |  | -10 |  |  |
| C[C@]12CC[C@]3(C1)[C@H](C/C2=N\O)C[C@@H](OC(=O)c1ccccc1)[C@H]1[C@](C)(C(=O)O)CCC[C@@]13C | 66 |  |  |  | 28 |  |  |  |  | 90 |  |  |
| CC(=O)O[C@@H]1C[C@@H]2C[C@@H](OC(=O)c3ccccc3)[C@H]3[C@](C)(C(=O)O)CCC[C@]3(C)[C@]23CC[C@@]1(C)C3 | 26 | 72 | 55 | 79 | 27 |  |  |  |  | 42 |  |  |
| COC(=O)[C@]1(C)CCC[C@@]2(C)[C@H]1[C@H](OC(=O)c1ccccc1)C[C@H]1C[C@@H](OC(C)=O)[C@@]3(C)CC[C@]12C3 | 40 | 70 | 60 | 112 | 55 |  |  |  |  | 37 |  |  |
| C[C@]12CC[C@]3(C1)[C@H](C[C@H]2O)C[C@@H](OC(=O)c1ccccc1)[C@H]1[C@](C)(C(=O)O)CCC[C@@]13C | 40 | 87 | 17 | 104 | 45 |  |  |  |  | 37 |  |  |
| COC(=O)[C@]1(C)CCC[C@@]2(C)[C@H]1[C@H](OC(=O)c1ccccc1)C[C@H]1CC(=O)[C@@]3(C)CC[C@]12C3 | 74 | 91 | 70 | 118 | 78 |  |  |  |  | 110 |  |  |
| C[C@]12CC[C@]3(C1)[C@@H](C[C@@H](O)[C@H]1[C@](C)(CO)CCC[C@@]13C)C[C@@H]2O | -25 |  |  |  | -5 |  |  |  |  | -4 |  |  |
| CC(=O)O[C@H]1C[C@@H]2C[C@@H](OC(=O)c3ccccc3)[C@H]3[C@](C)(C(=O)O)CCC[C@]3(C)[C@]23CC[C@@]1(C)C3 | 18 |  |  |  | 21 |  |  |  |  | 8 |  |  |
| C[C@]12CC[C@]3(C1)C(CC2=O)C[C@@H](O)C1[C@](C)(C(=O)O)CCC[C@@]13C (stereo partly drawn) | 92 | 10 | 0 | 20 | 43 |  |  |  |  | 94 |  |  |
| CC(=O)OC[C@]1(C)CCC[C@@]2(C)C1[C@H](O)CC1C[C@H](OC(C)=O)[C@@]3(C)CC[C@]12C3 (stereo partly drawn) | 23 |  |  |  | 1 |  |  |  |  | 11 |  |  |
| C[C@]12CC[C@]3(C1)[C@H](CC2=O)C[C@@H](OC(=O)c1ccccc1)[C@H]1[C@@](CO)(C(=O)O)CCC[C@@]13C [SCOPADULCIC ACID A] | 24 |  |  |  | 46 |  |  |  |  | -14 |  |  |
| C[C@]12CC[C@]3(C1)[C@H](CC2=O)C[C@@H](OC(=O)c1ccccc1)[C@H]1[C@](C)(C(=O)O)CCC[C@@]13C [SCOPADULCIC ACID B] | 76 | 74 | 59 | 87 | 28 |  |  |  |  | 94 |  |  |
